Results as given in publication PMC9986876, “Prediction of Antileishmanial Compounds: General Model, Preparation, and Evaluation of 2-Acylpyrrole Derivatives” (Journal of Chemical Information and Modeling, 2022).

What was measured:
L. major promastigotes = conditions: in vitro; cited from earlier work
[1] = target: Leishmania donovani Promastigotes; design: method as in J. Med. Chem., ( 1991), 34, 9, 2798; conditions: ChEMBL dataset, some flagged Outside typical range, ref J. Med. Chem., ( 1991), 34, 9, 2798, read-out: vij, Ki; cited from earlier work
[2] = tested on: L. amazonensis amastigotes; experiment: In vitro intracellular amastigote susceptibility assay in J774 macrophages; format: cell-based; conditions: for IC50: Leishmania amazonensis, L. amazonensis intracellular amastigotes in J774, 48 h, N/A = not active at 100 μg/mL
Protocol: (§1) The following species of Leishmania were used: L. donovani (MHOM/IN/80/DD8) was purchased (ATCC, USA) and L. amazonensis (MHOM/Br/79/Maria) was kindly provided by Prof. Alfredo Toraño (Instituto de Salud Carlos III, Madrid). Promastigotes were cultured in Schneider’s insect medium supplemented with 10% heat-inactivated fetal bovine serum (FBS) and 1000 U/L of penicillin plus 100 mg/L of streptomycin in 25 mL culture flasks at 26 °C. The assay was carried out as previously described.[29] Briefly, 5 × 10^4 J774 macrophages and stationary promastigotes in a 1:5 ratio were seeded in each well of a microtiter plate, suspended in 200 μL of culture medium, and incubated for 24 h at 33 °C in a 5% CO2 chamber. After this first incubation, the temperature was increased up to 37 °C for another 24 h. Thereafter, cells were washed several times in culture medium by centrifugation at 1.500g for 5 min in order to remove free non-internalized promastigotes. Finally, the supernatant was replaced by 200 μL/well of culture medium containing 2-fold serial dilutions of the test compounds as in promastigotes assay. Growth control and signal-to-noise were also included. Following incubation for 48 h at 37 °C and 5% CO2, the culture medium was replaced by 200 μL/well of the lysis solution (RPMI-1640 with 0.048% HEPES and 0.01% SDS) and incubated at room temperature for 20 min. Thereafter, the plates were centrifuged at 3.500g for 5 min and the lysis solution was replaced by 200 μL/well of Schneider’s insect medium. The culture plates were then incubated at 26 °C for another 4 days to allow transformation of viable amastigotes into promastigotes and proliferation. Afterward, 20 μL/well of 2.5 mM resazurin was added and incubated for another 3 h. Finally, fluorescence emission was measured and IC50 was estimated as described above. All tests were carried out in triplicate. Miltefosine (Sigma-Merck, Madrid, Spain) was used as the reference drug and was evaluated under the same conditions. The IC50 and SI were calculated as in the previous section.

[3] = tested on: L. donovani (MHOM/IN/80/DD8) promastigotes; experiment: In vitro promastigote susceptibility assay (resazurin); format: cell-based; conditions: for IC50: Leishmania donovani, L. donovani promastigotes, 48 h at 26 °C, triplicate, N/A = not active at 100 μg/mL; for SI (selectivity index, SI = CC50/IC50): CC50 J774 / IC50 L. donovani promastigotes
Protocol: (§2) The following species of Leishmania were used: L. donovani (MHOM/IN/80/DD8) was purchased (ATCC, USA) and L. amazonensis (MHOM/Br/79/Maria) was kindly provided by Prof. Alfredo Toraño (Instituto de Salud Carlos III, Madrid). Promastigotes were cultured in Schneider’s insect medium supplemented with 10% heat-inactivated fetal bovine serum (FBS) and 1000 U/L of penicillin plus 100 mg/L of streptomycin in 25 mL culture flasks at 26 °C. […] New samples of the compounds have been prepared according to the protocol described above, and subsequently solutions of the chemical compound to be assayed have been dissolved in DMSO at 50 mg/mL. […] Growth control and signal-to-noise control were also included. The final solvent (DMSO) concentrations never exceeded 0.5% (v/v) warranting no effect on parasite proliferation or morphology. After 48 h at 26 °C, 20 μL of a 2.5 mM resazurin solution was added to each well and the plates were returned to the incubator for another 3 h. […] Growth inhibition (%) was calculated by 100 – [(RFU treated wells – RFU signal-to-noise)/(RFU untreated – RFU signal-to-noise) × 100]. All tests were carried out in triplicate. Miltefosine (Sigma-Merck, Madrid, Spain) was used as the reference drug and was evaluated under the same conditions. […] The selectivity index (SI) was calculated as the ratio between cytotoxicity (CC50) and activity against parasites (IC50).

[4] = tested on: L. amazonensis (MHOM/Br/79/Maria) promastigotes; experiment: as above; format: cell-based; conditions: for IC50: Leishmania amazonensis, L. amazonensis promastigotes, 48 h at 26 °C, triplicate, N/A = not active at 100 μg/mL; for SI (selectivity index, SI = CC50/IC50): CC50 J774 / IC50 L. amazonensis promastigotes
Protocol: as §2

[5] = Cytotoxicity assay on macrophages (resazurin); format: cell-based, BALB/c mice; conditions: mouse, J774 macrophages, values marked e correspond to 100 μg/mL, the higher dose tested
Protocol: The assay was carried out as previously described.[30] J774 macrophages cell lines were seeded (5 × 10^4 cells/well) in 96-well flat-bottom microplates with 100 μL of RPMI 1640 medium. The cells were allowed to attach for 24 h at 37 °C and 5% CO2, and the medium was replaced by different concentrations of the compounds in 200 μL of medium and exposed for another 24 h. Growth controls and signal-to-noise were also included. Afterward, a volume of 20 μL of 2.5 mM resazurin solution was added, and plates were returned to the incubator for another 3 h to evaluate cell viability. The reduction of resazurin was determined by fluorometry as in the promastigote assay. Each concentration was assayed three times.

L. donovani amastigotes = experiment: In vitro intracellular amastigote susceptibility assay in J774 macrophages; format: cell-based; conditions: for IC50: Leishmania donovani, L. donovani intracellular amastigotes in J774, 48 h, N/A = not active at 100 μg/mL
Protocol: as §1, with “Miltefosine (Sigma-Merck, Madrid, Spain) was used as the reference drug and was evaluated under the same conditions.” left out

[6] = macrophages J774, 24 h exposure, Table 2
[7] = macrophages J774, Table 3 (amastigote assay table)

Row | SMILES | IC50 [3] | IC50 [4] | CC50 at 24 h [5, 6] [µM] | SI (selectivity index, SI = CC50/IC50) [3] | SI (selectivity index, SI = CC50/IC50) [4] | also measured
1 | CN1CCC(c2cc(-c3ccncc3)c(-c3ccc(F)cc3)[nH]2)CC1 [compound 1] |  |  |  |  |  | IC50 (L. major promastigotes): 2.1 µM
2 | C=CCCCC(N)C[C@H]1OC(n2cnc3c(N)ncnc32)[C@H](O)[C@@H]1O (stereo partly shown) [CHEMBL607696] |  |  |  |  |  | Ki [1]: 877 µM
3 | CCCCCCCCCCCCCCCCOP(=O)([O-])OCC[N+](C)(C)C [miltefosine, reference compound] | 0.24 ± 0.02 µM | 30.7 ± 8.8 µM | 55.4 ± 4.19 |  |  | IC50 [2]: 47.6 ± 7.04 µM; CC50 at 24 h [5, 7]: 136 ± 10.2 µM
4 | NCCC(CN)C[C@H]1OC(n2cnc3c(N)ncnc32)[C@H](O)[C@@H]1O (stereo partly shown) [CHEMBL611866] |  |  |  |  |  | Ki [1]: 1120 µM
5 | Cc1ccc2ncc(/C=C/C(=O)c3cc[nH]c3)cc2c1 [4a] |  |  |  |  |  | IC50 (L. major promastigotes): 1.29 µM
6 | COc1ccc2ncc(/C=C/C(=O)c3cc[nH]c3)cc2c1 [4b] |  |  |  |  |  | IC50 (L. major promastigotes): 1.18 µM
7 | Nc1ncnc2c1ncn2C1O[C@H](C[C@@H](N)CC[C@@H](N)C(=O)O)[C@@H](O)[C@H]1O (stereo partly shown) [CHEMBL608870] |  |  |  |  |  | Ki [1]: 49 µM
8 | CN1CCC(c2cc(-c3ccc(F)cc3)c(-c3ccncc3)[nH]2)CC1 [compound 2] |  |  |  |  |  | IC50 (L. major promastigotes): 0.6 µM

Now from value to compound, other results behind:

Row | IC50 [3] | IC50 [4] | SMILES | CC50 at 24 h [5, 6] [µM] | SI (selectivity index, SI = CC50/IC50) [3] | SI (selectivity index, SI = CC50/IC50) [4] | also measured
9 | 221 ± 36.9 µM | 30.9 ± 3.11 µM | Cc1cccnc1-n1cccc1C(=O)c1ccc(C(C)(C)C)cc1 [5bc] | > 314 | >1.42 | >10.17 | IC50 (L. donovani amastigotes): > 100 µg/mL; IC50 [2]: 60.6 ± 7.88 µM; CC50 at 24 h [5, 7]: > 314 µM
10 | 19.9 ± 1.47 µM | 38.1 ± 0.85 µM | Cc1cccnc1-n1cccc1C(=O)c1ccc(Br)cc1 [5bf] | 120 ± 37.4 | >6.01 | >3.14 | 
11 | > 100 µg/mL | > 100 µg/mL | N#Cc1ccc(C(=O)c2cccn2-c2ncccn2)cc1 [5ag] | > 365 |  |  | 
12 | > 100 µg/mL | > 100 µg/mL | Cc1ccc(C(=O)c2cccn2-c2ncccn2)cc1 [5ab] | > 381 |  |  | 
13 | > 100 µg/mL | 227 ± 13.4 µM | Cc1cccnc1-n1cccc1C(=O)c1ccn(C)c1 [5br] | > 377 |  | >1.66 | 
14 | 20.7 ± 0.98 µM | 51.5 ± 4.72 µM | Cc1cccnc1-n1cccc1C(=O)c1ccc(Cl)cc1 [5be] | 149 ± 19.3 | >7.19 | >2.89 | 
15 | 120 ± 15 µM | 149 ± 3.84 µM | Cc1ccc(C(=O)c2cccn2-c2ncccc2C)cc1 [5bb] | > 362 | >3.02 | >2.43 | 
16 | 118 ± 25.8 µM | 67.2 ± 4.94 µM | O=C(c1ccc(Br)cc1)c1cccn1-c1ncccn1 [5af] | > 305 | >2.58 | >4.54 | SI (selectivity index, SI = CC50/IC50) (L. donovani amastigotes; CC50 J774 / IC50 L. donovani amastigotes): >1.45; IC50 (L. donovani amastigotes): 211 ± 30.3 µM; SI (selectivity index, SI = CC50/IC50) ([2]; CC50 J774 / IC50 L. amazonensis amastigotes): >1.99; IC50 [2]: 153 ± 9.11 µM; CC50 at 24 h [5, 7]: > 305 µM
